Read-outs that look alike come from different tables or passages of the source.
Experiments:
[1] = type: physicochemical; set-up: key to Fibril / Fibril Formation / TEM 2cat / Fibril: 1 = fibrils present; 0 non-fibrillar structures; details: for Fibril / Fibril Formation: 1 mg/mL, uranyl acetate stain, qualitative
Procedure: For ATR FT–IR spectroscopy measurements, 200 µL of the respective 1 mg/mL PNF solution was lyophilized and the resulting powder used for measurement. All spectra were recorded on a Bruker Tensor 27 spectrometer with a diamond crystal as ATR element (PIKE MiracleTM, spectral resolution 2 cm^-1). Every sample was measured with 64 scans. Data were analyzed with OriginLab software and calculation of β–sheet content was conducted according to a previous report. TEM. For TEM measurements 5 µL of PNF fibrils (1 mg/mL) were placed on copper grids coated with carbon and formvar layer (300 mesh, Plano GmbH). After 10 min incubation time, the grids were staining with 4% uranyl acetate solution for 2.5 min and washed with water. Measurements were performed on a Jeol 1400 electron microscope with 120 kV acceleration voltage. CR Assay. For the determination of the amount of peptide monomer converting into nanostructures the amine reactive dye fluorescamine was used analogous to a previous reported protocol. Briefly, 100 µL of the preformed PNF solution was centrifuged in a Vivaspin 500 tube (3 kDa MWCO) to separate fibers from free peptide monomer (16200 x g, 4 °C, 45 min). The filtrate and 100 μL of the non-filtered PNF sample were lyophilized and dissolved in 30 μL DMSO. 10 μL of the filtrate and non-filtered DMSO samples were submitted in a black UV Star® 384 microliter well–plates (Greiner bio–one) and 3 μL of the fluorescamine solution (10 mg/mL, DMSO) was added to measure the fluorescence enhancement. After 20 min of incubation at RT, fluorescence was recorded on an Infinite® M1000 PRO microplate reader (Tecan) at λem = 470 nm upon excitation at λex = 365 nm with 10 nm bandwidths and multiple reads per well (3×3). Measurements were repeated in triplicates and averaged with standard deviation. All values were calculated as n-fold fluorescence enhancement (DMSO only as a reference was set to 1). The conversion rate CR was defined according to the equation Eq. (3).3 CR=100−100×fluorescenceintensityfiltrate/fluorescenceintensityoriginal[%]
1. Remarks on experimental parameters and bioinformatic descriptors
1.1 Experimental parameters
Transmission electron microscopy (TEM) measurements. TEM measurements were used to control if peptides assemble. The assemblies were categorized in non -fibrillar structures (no assembly, […]
grid but only amorphous aggregates. In contrast, peptides defined as fibrillar may also include amorphous structures. Amongst nonfibrillar assemblies also amorphous aggregates are summarized.
Amorphous aggregates are defined as structures with high β-sheet content which lack long-range order, that is crystallinity or fibril formation. It is generally assumed that these structures might be

[2] = Turbidity, derived count rate of scattered light; type: physicochemical; details: for Count Rate / kcps: derived count rate of scattered light at 633 nm, 173°, from zeta-potential measurement, 0.1 mg/mL in 1 mM KCl after 1 d at 1 mg/mL in PBS, turbidity / microscopic aggregation, mean of triplicate; for Log Count Rate: log of derived count rate
Procedure: 4 µL of 1 mg/mL peptide fibrils solution is added to a 20 µL, 50 µM ThT–solution in PBS. The mixture is incubated for 15 min at RT to allow binding of ThT dye with β–sheet rich structures. For reference PBS (4 µL) was added instead of peptide fibril solution. The samples were placed in black UV Star® 384 microliter well–plates (Greiner bio–one). Fluorescence spectra were recorded on an Infinite® M1000 PRO microplate reader (Tecan) at λem = 488 nm upon excitation at λex = 440 nm with 10 nm bandwidths and multiple reads per well (3×3). Measurements were repeated in triplicates and averaged with standard deviation. […] Zeta-Potential. For the determination of the surface charge of aggregated peptides zeta-potential measurements were conducted with a Zetasizer Nano ZS, Malvern Instruments. Unless stated otherwise the peptides were dissolved from DMSO (10 mg/mL) in PBS (pH 7.4) to concentration of 1 mg/mL and incubated for 1d at RT. Just before the measurement the 60 µL of the peptides were further diluted in 600 µL KCl (aq, 1 mM) in a 1 mL disposable folded capillary cells (DTS–1060, Zetasizer Nano series, Malvern). The zeta potential of the peptides was derived from the electrophoretic mobility based on the Smoluchowski formula. All measurements were averaged over two individually performed experiments and conducted in triplicates for each sample. Aggregate analysis. […] Furthermore, fluorescence microscopy was conducted by staining 1 µL preformed fibrils (1 mg/mL) with 9 µL ThT (50 µM). Brightfield microscopy was performed simultaneously to evaluate aggregation also for non ThT-active fibrils. The measurements were performed on a Leica DMi8 microscope with 10x air objective and equipped with a Leica MC170 HD camera with a filter setting λem = 527/30 nm upon excitation at λex = 480/40 nm) and processed with the Leica LASX software. To quantify size and number of microscopic aggregation of particles > 10 µm^2 at least 3 independently measured images were analyzed via the 3D object counter analysis tool of ImageJ, v 1.53f51. Sum–frequency generation. The SFG experiments were carried out with a femtosecond Ti: Sapphire amplified laser system (Spitfire Ace, Spectra–Physics, 800 nm, 40 fs, 1 kHz) with 5 W output power. We used 2 W to pump an optical parametric amplifier (TOPAS, light conversion) with a non–collinear difference frequency generation stage to generate broadband IR pulses. Another 1 W of the laser output passed through an etalon to generate narrowband visible pulses (10 cm^-1). The incident angles of the visible and IR beams were 36° and 41° with respect to the surface normal, respectively. The visible (13 µJ) and IR (5 µJ) pulses were overlapped spatially and temporally at the sample position. Subsequently, the generated SFG pulse was guided into a spectrograph (Acton SP 300i, Princeton Instruments), and detected with an EMCCD (Newton, Andor Technology). To avoid IR absorption of water vapor, we purged N2 for the measurement. All spectra were collected in the ssp (denoting s-, s- and p-polarized SFG, visible and IR, respectively) polarization combination. The spectra were normalized to the non–resonant signal taken from z–cut quartz after subtracting a background spectrum. […]
ways to determine turbidity of samples, this can be via transmittance and via scattering. Transmittance […]
as it is an easy and fast method.10,11 However, transmittance contributes not only from µm-sized aggregates but also nm-sized aggregates such as distinct fibrils, which makes hard to distinguish between fibril formation and micrometer sized aggregation. Although dynamic light scattering is a frequently applied method for determination of particle size, it cannot be conducted in solutions with anisotropic aggregates in micrometer size range, since the Stokes-Einstein relation is only applicable for homogeneous […] spherical particles.12 Further models describing scattering intensity and […]

[3] = Turbidity, derived count rate of scattered light; type: physicochemical; details: for Count Rate: derived count rate of scattered light (turbidity); for Log10 Count Rate: turbidity, derived count rate of scattered light, data of Figure 2D
[4] = Fig S10 panel D, fibril category by TEM
[5] = TEM, 1 = fibrils present, 0 = non-fibrillar
[6] = TEM, 1 = fibrils present, 0 = non-fibrillar structures
[7] = category: fibrils present or non-fibrillar
[8] = Log10 of derived count rate of scattered light (turbidity)
[9] = log10 of derived count rate of scattered light (turbidity)
[10] = turbidity, Log10 of derived count rate of scattered light, Figure 3A source data
[11] = FigS12 panel A, fibril category by TEM
[12] = logarithm of count rate in kcps

KIKIQIW
TEM 2cat [1, 4]: 1 | Fibril / Fibril Formation ([1]; TEM): 1 | Fibril [1, 5]: 1 | Fibril [1, 6]: 1 | TEM 2cat [1, 7]: 1 | Log10 Count Rate [2, 8]: 2.161 | Count Rate / kcps [2]: 145 kcps | Log10 Count Rate [2, 9]: 2.161 | Log10 Count Rate [2, 10]: 2.161 | Count Rate [3]: 144.9 | Log10 Count Rate [3]: 2.161

KIKIQII
TEM 2cat [1, 4]: 1 | TEM 2cat [1, 11]: 1 | Fibril ([1]; FigS12 panel B, TEM): 1 | Fibril / Fibril Formation ([1]; TEM): 1 | Fibril [1, 5]: 1 | Fibril [1, 6]: 1 | Log10 Count Rate [2, 8]: 3.017 | Count Rate / kcps [2]: 1039 kcps | Log10 Count Rate [2, 9]: 3.017 | Log10 Count Rate [2, 10]: 3.017 | Count Rate [3]: 1039 | Log10 Count Rate [3]: 3.017

KIKQII
TEM 2cat [1, 4]: 0 | Fibril ([1]; Fig S10 panel E): 0 | TEM 2cat [1, 11]: 0 | Fibril ([1]; FigS12 panel B, TEM): 0 | Fibril / Fibril Formation ([1]; TEM): 0 | Fibril [1, 5]: 0 | Fibril [1, 6]: 0 | Log10 Count Rate [2, 8]: 2.086 | Count Rate / kcps [2]: 122 kcps | Log10 Count Rate [2, 9]: 2.086 | Log10 Count Rate [2, 10]: 2.086 | Count Rate [3]: 122 | Log10 Count Rate [3]: 2.086

CKIW
TEM 2cat [1, 4]: 0 | Fibril ([1]; Fig S10 panel E): 0 | TEM 2cat [1, 11]: 0 | Fibril ([1]; FigS12 panel B, TEM): 0 | Fibril / Fibril Formation ([1]; TEM): 0 | Fibril [1, 5]: 0 | Fibril [1, 6]: 0 | Log10 Count Rate [2, 8]: 0.5051 | Count Rate / kcps [2]: 3 kcps | Log10 Count Rate [2, 9]: 0.5051 | Log10 Count Rate [2, 10]: 0.5051 | Count Rate [3]: 3.2 | Log10 Count Rate [3]: 0.5051

HHHHKAKAKAKAYYYY
TEM 2cat [1, 4]: 0 | TEM 2cat [1, 11]: 0 | Fibril ([1]; FigS12 panel B, TEM): 0 | Fibril / Fibril Formation ([1]; TEM): 0 | Fibril [1, 5]: 0 | Fibril [1, 6]: 0 | Log10 Count Rate [2, 8]: 2.382 | Count Rate / kcps [2]: 241 kcps | Log10 Count Rate [2, 9]: 2.382 | Log10 Count Rate [2, 10]: 2.382 | Count Rate [3]: 240.9 | Log10 Count Rate [3]: 2.382

CKIKIQIRGD
TEM 2cat [1, 4]: 1 | Fibril ([1]; Fig S10 panel E): 1 | Fibril / Fibril Formation ([1]; TEM): 1 | Fibril [1, 5]: 1 | Fibril [1, 6]: 1 | TEM 2cat [1, 7]: 1 | Log10 Count Rate [2, 8]: 3.762 | Count Rate / kcps [2]: 5777 kcps | Log10 Count Rate [2, 9]: 3.762 | Log10 Count Rate [2, 10]: 3.762 | Count Rate [3]: 5777 | Log10 Count Rate [3]: 3.762

CQFQFQF
TEM 2cat [1, 4]: 1 | Fibril / Fibril Formation ([1]; TEM): 1 | Fibril [1, 5]: 1 | Fibril [1, 6]: 1 | TEM 2cat [1, 7]: 1 | Log10 Count Rate [2, 8]: 3.899 | Count Rate / kcps [2]: 7929 kcps | Log10 Count Rate [2, 9]: 3.899 | Log10 Count Rate [2, 12]: 3.899 | Log10 Count Rate [2, 10]: 3.899 | Count Rate [3]: 7929 | Log10 Count Rate [3]: 3.899

KFKFQFW
TEM 2cat [1, 4]: 1 | Fibril / Fibril Formation ([1]; TEM): 1 | Fibril [1, 5]: 1 | Fibril [1, 6]: 1 | TEM 2cat [1, 7]: 1 | Log10 Count Rate [2, 8]: 2.086 | Count Rate / kcps [2]: 122 kcps | Log10 Count Rate [2, 9]: 2.086 | Log10 Count Rate [2, 10]: 2.086 | Count Rate [3]: 121.9 | Log10 Count Rate [3]: 2.086

KFKFQFF
TEM 2cat [1, 4]: 1 | Fibril / Fibril Formation ([1]; TEM): 1 | Fibril [1, 5]: 1 | Fibril [1, 6]: 1 | TEM 2cat [1, 7]: 1 | Log10 Count Rate [2, 8]: 1.577 | Count Rate / kcps [2]: 38 kcps | Log10 Count Rate [2, 9]: 1.577 | Log10 Count Rate [2, 10]: 1.577 | Count Rate [3]: 37.77 | Log10 Count Rate [3]: 1.577

KIKIKIKI
TEM 2cat [1, 4]: 0 | TEM 2cat [1, 11]: 0 | Fibril ([1]; FigS12 panel B, TEM): 0 | Fibril / Fibril Formation ([1]; TEM): 0 | Fibril [1, 5]: 0 | Fibril [1, 6]: 0 | Log10 Count Rate [2, 8]: 2.191 | Count Rate / kcps [2]: 155 kcps | Log10 Count Rate [2, 9]: 2.191 | Log10 Count Rate [2, 10]: 2.191 | Count Rate [3]: 155.1 | Log10 Count Rate [3]: 2.191

CKIKQIINMWQ
TEM 2cat [1, 4]: 1 | Fibril ([1]; Fig S10 panel E): 1 | Fibril / Fibril Formation ([1]; TEM): 1 | Fibril [1, 5]: 1 | Fibril [1, 6]: 1 | TEM 2cat [1, 7]: 1 | Log10 Count Rate [2, 8]: 3.92 | Count Rate / kcps [2]: 8317 kcps | Log10 Count Rate [2, 9]: 3.92 | Log10 Count Rate [2, 12]: 3.92 | Log10 Count Rate [2, 10]: 3.92 | Count Rate [3]: 8317 | Log10 Count Rate [3]: 3.92

RGDSGGGGGGKIKIQIC
TEM 2cat [1, 4]: 1 | Fibril ([1]; Fig S10 panel E): 1 | Fibril / Fibril Formation ([1]; TEM): 1 | Fibril [1, 5]: 1 | Fibril [1, 6]: 1 | TEM 2cat [1, 7]: 1 | Log10 Count Rate [2, 8]: 4.018 | Count Rate / kcps [2]: 10416 kcps | Log10 Count Rate [2, 9]: 4.018 | Log10 Count Rate [2, 12]: 4.018 | Log10 Count Rate [2, 10]: 4.018 | Count Rate [3]: 10416.16667 | Log10 Count Rate [3]: 4.018

HHHHKIKIKIKIWWWW [TM4]
TEM: 1= fibrils, 0= aggregates (micelle), 0.5 = aggregates and fibrils, -1 = nothing obersved, STD prep ([1]; STD prep): 0.5 | Log Count Rate ([2]; Fig S8 panels A, C, asymmetric log errors): 4.376 | Log Count Rate ([2]; Fig S8 panels B, D): 4.376 | Count Rate ([2]; Fig S8 panels B, D, turbidity, derived count rate of scattered light): 23756.7 | Zeta Count Rate Category ([2]; category 1 / 0, no key given): 1 | Zeta Count Rate / kcps ([2]; derived count rate of scattered light): 23756.66667 kcps

From article PMC10447463, “Data-mining unveils structure–property–activity correlation of viral infectivity enhancing self-assembling peptides” (Nature Communications, 2023)
